Measured values published in patent publication US6998422B2, “Lipid peroxide-lowering compositions” (Sankyo Company, Limited, priority 2000, dated 2006).

Tested on: blood lipid peroxides
Assay: Blood lipid peroxide levels in serum of beagle dogs after oral dosing for 11 days (Yagi's method, fluorometer)
Conditions: relative ratio against averaged pre-dosing level (100), oral capsule once daily, pravastatin 2 mg/kg, mean of 5 dogs
From the text: Beagle dogs aged 5 months were purchased from Covance Research Products Inc. and used after 1 month of quarantine and acclimatisation breeding.
The required amounts of pravastatin or each component of the combination drug calculated from the body weight of each dog were weighed and filled in a gelatin capsule purchased from TORPAC Inc. Capsules filled with pravastatin were stocked in a refrigerator and those filled with combination drugs stocked at room temperature until use.
The combination drugs were filled in identical gelatin capsules.
Pravastatin or combination drug capsules were forcibly orally administered to each of the test animals once daily between 9:00 and 12:30. Animals were fasted for 2 or 3 hr prior to administration of the capsules.
The administration period was 11 successive days.
Blood (10 mL) was collected from the superficial radial vein 3 or 4 days prior to administration (−3 or −4 days in the first week prior to capsule administration) and 4 and 8 days after administration of the capsule. Animals were fasted for approximately 18 hr prior to blood collection. Collected blood was placed in a test tube and left at room temperature for 0.5–1 hr and centrifuged (3,000 rpm, for 10 min). The obtained serum was used for assays of blood lipid peroxides according to Yagi's methods.
A fluorometer (Hitachi, Ltd., F3000) was used for assay of the lipid peroxides.
The averaged value in each group was obtained from 5 animals a group.

Row | SMILES | Blood Lipid Peroxide Levels after administration, 4 days (taurine 1,000 mg/kg) | Blood Lipid Peroxide Levels after administration, 8 days (taurine 1,000 mg/kg) | Blood Lipid Peroxide Levels after administration, 4 days (pantethine 300 mg/kg) | Blood Lipid Peroxide Levels after administration, 8 days (pantethine 300 mg/kg)
1 | NCCS(=O)(=O)O [Taurine alone, Taurine] | 95.8 | 93.8 | – | –
2 | CC[C@H](C)C(=O)O[C@H]1C[C@H](O)C=C2C=C[C@H](C)[C@H](CC[C@@H](O)C[C@@H](O)CC(=O)O)[C@H]21 [Pravastatin alone, (+)-(3R,5R)-3,5-dihydroxy-7-[(1S,2S,6S,8S,8aR)-6-hydroxy-2-methyl-8-[(S)-2-methylbutyryloxy]-1,2,6,7,8,8a-hexahydro-1-naphthyl]heptanoate] | 110.8 | 116.2 | 110.8 | 116.2
